Results on three compounds are retold here after PubChem BioAssay AID1963983 (Molecular Pharmacology Branch, DTP, NCI, 2024).

pIC50: −log10 of the molar value. “And” between values parts separate entries of the source, which are not always exact repeats. Identical values can stand only once.

The subject of the experiment is 186277-243-T-J2-PDC multi-cell spheroid viability. The experiment can be described thus: Anticancer human tumor 186277-243-T-J2-PDC patient-derived colon adenocarcinoma cell line growth inhibition [PI3K]. Particulars: for viability, T/C: stronger effect = lower value. The text has this:
Combinatorial screen of targeted agents with the PI3K inhibitors inavolisib, alpelisib, duvelisib, and copanlisib in multi-cell type tumor spheroids
A high-throughput screen of multi-cell type tumor spheroids was designed to identify active combinations of targeted small molecules and PI3K pathway inhibitors. Complex spheroids include a stromal component modeled by human endothelial cells (HUVEC) and fibroblasts modeled by human mesenchymal stem cells (MSCs). The concentration ranges selected for each drug and investigational agent were based upon clinically achievable concentrations if the clinical Cmax of the agent was known.
Compounds. The drugs and investigational agents: inavolisib (NSC800729), alpelisib (NSC765974), duvelisib (NSC772469), copanlisib (NSC816437), ipatasertib (NSC767898), afuresertib (NSC778305), talazoparib (NSC767125), sapanisertib (NSC764658), selumetinib (NSC741078), tovorafenib (DAY101, NSC766906), vemurafenib (NSC761431), ravoxertinib (NSC781343), sotorasib (NSC818433), MRTX1133 (NSC 836407), abemaciclib (NSC 768073), palbociclib (NSC758247), venetoclax (NSC 766270), SY5609 (NSC837396), enzalutamide (NSC755605), and darolutamide (NSC825331), were obtained from the National Cancer Institute (NCI) Developmental Therapeutics Program Chemical Repository. The FDA-approved anticancer drug set is available from the NCI Developmental Therapeutics Program. […] The stock solutions were prepared in dimethyl sulfoxide (DMSO, Sigma-Aldrich, St. Louis, MO, cat. D2650) at 800-fold the tested concentration and stored at -70 degrees C prior to their use. All drugs and investigational agents were tested over a range starting from a high concentration at or near the clinical Cmax and decreasing in half-log increments. If the clinical Cmax for an agent had not been determined, the highest concentration tested was 10 microM.
Cell Culture. All cells were maintained in an incubator at 37 degrees C and 5% CO2 with 95% humidity. The PDC lines were cultured according to standard operating procedures established by the NCI PDMR (https://pdmr.cancer.gov/sops/default.htm). All PDCs were thawed and cultured in Matrigel-coated flasks prepared with a working solution of 1X Ham's F-12 nutrient mix, without supplementation (Invitrogen, Waltham, MA, cat. 11765054), 100 U/mL penicillin-streptomycin (Invitrogen, cat. 15140122), and 2.5% Matrigel (Corning Inc., Corning, NY, cat. 354248) for the first three passages. The 354836-022-R-J1-PDC, 475296-252-R-J1-PDC, and 997726-040-R-J2-PDC lines were cultured in 6A media, which includes advanced DMEM/F-12 (Thermo Fisher Scientific, cat. 12634028), 10 mM HEPES (Thermo Fisher Scientific, cat. 15630080), 1X GlutaMAX supplement (Thermo Fisher Scientific, cat. 35050061), 0.1 mg/mL primocin (InvivoGen, San Diego, CA, cat. ant-pm-2), 10% defined fetal bovine serum, heat inactivated (HyClone Laboratories Inc., Logan, UT, cat. SH30070.03HI), 50% L-WRN conditioned media (ATCC, cat. CRL-3276), 1.25 mM N-Acetyl-L-cysteine (Sigma-Aldrich, cat. A9165), 10 mM nicotinamide (Sigma-Aldrich, cat. N0636), 1X B-27 supplement (Thermo Fisher Scientific, cat. 17504044), 1X N-2 supplement (Thermo Fisher Scientific, cat. 17502048), and 10 microM Y-27632 dihydrochloride (Tocris Bioscience, Bristol, United Kingdom, cat. 1254). The 624824-186-R-J2-PDC line was cultured in 6C/Colon 1B media, which includes all 6A media components plus 50 ng/mL human EGF recombinant protein (Thermo Fisher Scientific, cat. PHG0311). […]
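Note: spheroids exposed to compounds for seven days before viability reading.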

The term pIC50 denotes the negative decadic logarithm of the IC50, by convention in mol/L. Usually viability, T/C stands for the ratio of treated to control. Consider `CC1(C)CCC(CN2CCN(c3ccc(C(=O)NS(=O)(=O)c4ccc(NCC5CCOCC5)c([N+](=O)[O-])c4)c(Oc4cnc5[nH]ccc5c4)c3)CC2)=C(c2ccc(Cl)cc2)C1` + COc1c(OCCCN2CCOCC2)ccc2c3n(c(=NC(=O)c4cnc(N)nc4)nc12)CCN3, for which the pIC50 runs as follows: (curve of first compound, second compound 0.00316 µM) below 5.00; (curve of first compound, second compound 0.01 µM) below 5.00; (curve of first compound, second compound 0.0316 µM) below 5.00; (curve of first compound, second compound 0.1 µM) above 7.50; (curve of first compound, second compound 0.316 µM) above 7.50; (curve of first compound, second compound 1 µM) above 7.50. The viability, T/C is, setting by setting: (second compound 0.00316 µM, first compound 0.0316 µM) 110%; (second compound 0.00316 µM, first compound 0.1 µM) 96.2%; (second compound 0.00316 µM, first compound 0.316 µM) 110%; (second compound 0.00316 µM, first compound 1 µM) 108%; (second compound 0.00316 µM, first compound 3.16 µM) 93%; (second compound 0.00316 µM, first compound 10 µM) 115%. The viability, T/C (second compound 0.01 µM, first compound 0.0316 µM) is 99.1%; the viability, T/C (second compound 0.01 µM, first compound 0.1 µM) is 105%; the viability, T/C (second compound 0.01 µM, first compound 0.316 µM) is 96.5%; the viability, T/C (second compound 0.01 µM, first compound 1 µM) was 109%; the viability, T/C (second compound 0.01 µM, first compound 3.16 µM) was 82.6%; the viability, T/C (second compound 0.01 µM, first compound 10 µM) is 94%. Further, the viability, T/C was 80.8% (second compound 0.0316 µM, first compound 0.0316 µM); 89.3% (second compound 0.0316 µM, first compound 0.1 µM); 80.5% (second compound 0.0316 µM, first compound 0.316 µM); 78.5% (second compound 0.0316 µM, first compound 1 µM); 76.1% (second compound 0.0316 µM, first compound 3.16 µM); 71.2% (second compound 0.0316 µM, first compound 10 µM). In addition, the viability, T/C reads like this: (second compound 0.1 µM, first compound 0.0316 µM) 26.6%; (second compound 0.1 µM, first compound 0.1 µM) 20.3%; (second compound 0.1 µM, first compound 0.316 µM) 21.3%; (second compound 0.1 µM, first compound 1 µM) 21.3%; (second compound 0.1 µM, first compound 3.16 µM) 23.9%; (second compound 0.1 µM, first compound 10 µM) 16.9%. Besides, the viability, T/C is, setting by setting: (second compound 0.316 µM, first compound 0.0316 µM) 5.48%; (second compound 0.316 µM, first compound 0.1 µM) 11.5%; (second compound 0.316 µM, first compound 0.316 µM) 4.51%; (second compound 0.316 µM, first compound 1 µM) 6.03%; (second compound 0.316 µM, first compound 3.16 µM) 6.17%; (second compound 0.316 µM, first compound 10 µM) 4.39%. The viability, T/C was 2.94% (second compound 1 µM, first compound 0.0316 µM); 4.42% (second compound 1 µM, first compound 0.1 µM); 3.06% (second compound 1 µM, first compound 0.316 µM); 2.7% (second compound 1 µM, first compound 1 µM); 5.01% (second compound 1 µM, first compound 3.16 µM); 2.15% (second compound 1 µM, first compound 10 µM).

Regarding `CC(Cn1ccc(-c2ccc(C#N)c(Cl)c2)n1)NC(=O)c1cc(C(C)O)[nH]n1` (stereo unspecified), the viability, T/C (compound 0.0316 µM) was 95.5% [middle of 4 runs]; the viability, T/C (compound 0.1 µM) is 99% [middle of 4 runs]; the viability, T/C (compound 0.316 µM) is 101% [middle of 4 runs]; the viability, T/C (compound 1 µM) is 102% (2×) and 82% and 108%; the viability, T/C (compound 3.16 µM) is 96.6% [middle of 4 runs]; the viability, T/C (compound 10 µM) is 97.3% [middle of 4 runs]. The pIC50 (curve of compound) was below 5.00.

As a reminder, the IC50 is the concentration needed to halve the response being measured. In the case of `CC1(C)CCC(Nc2ncc(C(F)(F)F)c(-c3c[nH]c4c(P(C)(C)=O)c(C#N)ccc34)n2)CN1` (stereo unspecified), the viability, T/C (compound 0.0316 µM) is 75.1% [middle of 4 runs]; the viability, T/C (compound 0.1 µM) is 55.2% [middle of 4 runs]; the viability, T/C (compound 0.316 µM) is 50.5% [middle of 4 runs]; the viability, T/C (compound 1 µM) is 59.2% [middle of 4 runs]; the viability, T/C (compound 3.16 µM) was 62.6% [middle of 4 runs]; the viability, T/C (compound 10 µM) is 0.77% [middle of 4 runs]. For the same compound, the IC50 (curve of compound) was 3.64 µM [middle of 4 runs].
